US7288573B2, “Method of repelling insects” (priority 2001, dated 2007)
Values joined by “and” are separate entries in the source; they are usually repeats but may differ in a detail not shown here. Equal entries are not always repeated. “Also recorded” adds a separate entry of the source.

Tests used:
Culex spp. = assay: Mosquito repellency of 2-undecanone and 2-tridecanone, treated arm in cage (Example 6); type: in vivo; details: for No. landings: single replicates; for observed repellent / residual activity (words): observed up to 24 hours post-treatment
From the text: Cages. The same two mosquitoes cages described in Example 5 were used for this example. The cages were constructed using wood framing and fine mesh wire screen. The dimensions of each cage were 59 cm high×55 cm wide by 59 cm deep. A hinged access door was installed at the front of each chamber for insertion of the water-filled containers filled with mosquito pupae. Also present at the front of each chamber was a 9 cm diameter plastic tube (i.d.) for insertion of the arm of the investigator. The arm insertion tube was sealed with a rubber stopper when not in use.
Mosquitoes and Mosquito Rearing. Mosquitoes (Culex spp.) were obtained (as pupae and larvae) from Carolina Biological Supply Co., Burlington, N.C., USA in two successive shipments, so as to provide a continuing long term supply of fresh insects. Following their arrival, the mosquitoes were divided into approximately equal numbers in multiple water-filled containers and placed in the two cages described above. The larval and pupal cultures were fed with insect rearing compound. In addition, the water was changed regularly by filtration to minimize contamination and prevent overcrowding. Continuous culturing made it possible to increase the mosquito numbers to more than 100 insects per cage.
Test Compounds and Testing Schedule. Testing was done with two compounds, 2-undecanone, and 2-tridecanone, for repellent activity by treating one arm of the investigator with approximately 1 ml of the test solution. Following several minutes for solvent evaporation, the treated arm was inserted through the insertion tube for 5 minutes. The other arm was treated with isoprbpanol (control) or a different concentration of the compound, and inserted into the insertion tube of the adjacent chamber. Next, the behavior of the mosquitoes in response to the presence of the investigator's arms was noted. Mosquito behavior was recorded as 1) landing or attempting to land on the investigator's arm, or coming to rest on the wire screen immediately adjacent to the investigator's arm or hand, versus 2) dispersal away from the treated arm towards the opposite ends of the cage. The approximate number of mosquitoes present at the beginning of the observations was noted. For treatments with 2-undecanone, observations were made initially to confirm 100% repellent activity of the compound immediately after treatment but observations were not recorded. Recording of efficacy was delayed until 6 hours after treatment, and then repeated at 12 and 24 hours post-treatment. For treatment with 2-tridecanone, the observations commenced immediately after solvent drying; then, the observations were repeated (without re-treatment of the investigator's hand and arm) after 6 hours, 12 hours and 24 hours. Treatments were alternated between the different cages. […]
2-tridecanone was obtained as a solid. To prepare this compound for testing, it was subjected to gentle heating in a 37° C. water bath to liquefy it, and aliquots of the stock were diluted volume: volume with isopropanol to 50% concentration and 20% concentration. Sufficient pure compound was retained for direct application (undiluted).
Tests were done at concentrations of 100%, 50%, and 20% for each of the two compounds, as well as 20% DEET, and the isopropanol control.
Table 3 presents the efficacy found at the different time intervals for each of the compounds at the three different concentrations and for DEET. Efficacy was calculated according to the formula: [(no. landings/no. present in control)−(no. landings/no. present in experinental) divided by (no. landings/no. present in control)]×100.

Aedes albopictus = assay: One-minute biting counts on treated forearm (Example 7); type: in vivo
Description: This experiment was performed to evaluate the comparative repellency of 5% and 20% 2-undecanone in ethanol, 20% 2-tridecanone in isopropanol and Off!™ 14.25% DEET Insect Repellent aerosol against Aedes albopictus (Asian tiger mosquitoes) and Culex quinquefasciatus (southern house mosquitoes).
Three to four-day-old laboratory-reared female Ae. albopictus and Cx. quinquefasciatus were transferred by aspiration into eight cages measuring 10 inches high×10 inches wide×13 inches deep at a targeted stocking rate of 100 and 200, respectively. Four cages contained Ae. albopictus and four contained Cx. quinquefasciatus. A greater number of Cx. quinquefasciatus was used to compensate for lower biting activity anticipated for this species. The actual number of females per cage was lower than the target-stocking rate because of the high number of males that were inadvertently introduced into the cages. Each cage contained a screened back wall, clear Plexiglas top, stockinette entry sleeve and solid aluminum floor and sidewalls. The mosquitoes were fed water and sugar water prior to and between tests. The tests were conducted over four days, Aug. 7-10, 2001, with four men participating as testers. All testers washed both arms with a non-fragrance soap, rinsed and swabbed with 25% ethanol prior to applying treatments. Treatments were applied to the forearm in a region extending from the wrist to a point measured at 12″ back from the tip of the index finger on both arms. The 20% 2-tridecanone was not applied as uniformly as the other repellents because an insufficient quantity was available. Latex gloves were worn over the hands and replaced before each biting count. The control consisted of a soap wash, rinse and 25% ethanol swab and was conducted by the same person throughout the study. One-minute biting counts were recorded at 0, 1, 2, 4 & 6 hours post-treatment time intervals. All treatments were randomly assigned to each tester, two treatments per tester. Cage placement was also randomized at the beginning of each day of testing. Testers were rotated each day so that by the end of the study they had occupied each cage location. Each repellent was tested two times by three testers so that mean biting counts were based on six observations. A Hobo datalogger was used to monitor temperature and humidity throughout the study.
A balanced incomplete block design following American Society for Testing and Materials standards E 939-94 was employed. Data were normalized by square root transformation and submitted to analysis of variance and mean separation procedures via SS PC. Microsoft Excel 2000 pivot tables and charting functions were used to plot mean biting counts and standard errors by species and time interval for each treatment and control. Mean biting counts were transformed to percent protection or repellency by the following formula: Control−Treatment/Control×100.

[1] = 20% concentration, 6 hours after treatment
[2] = 20% concentration, 12 hours after treatment
[3] = 20% concentration, 24 hours after treatment
[4] = 50% concentration, 6 hours after treatment
[5] = 50% concentration, 6 hours after treatment, listed as IBI-246
[6] = 50% concentration, 12 hours after treatment
[7] = 50% concentration, 12 hours after treatment, listed as IBI-246
[8] = 50% concentration, 24 hours after treatment
[9] = 50% concentration, 24 hours after treatment, listed as IBI-246
[10] = 100% concentration, 6 hours after treatment
[11] = 100% concentration, 12 hours after treatment
[12] = 100% concentration, 24 hours after treatment

CCCCCCCCCC(C)=O [2-undecanone]
Percent Efficacy Post-Treatment (Culex spp.; 20% concentration, 0 hours): 100%
Percent Efficacy Post-Treatment (Culex spp.; 20% concentration, 6 hours): 46.6%
No. landings, Mean (Culex spp.; [1]): 0.7
Percent = [(No. landings/No. present)] × 100 (Culex spp.; [1]): 2.5%
Percent = [(No. landings/No. present)] × 100 (Culex spp.; 20% concentration, 6 hours after treatment, listed as 2-Undecanone): 7.1%
No. landings (Culex spp.; [1]): 0 (2×) and 2
Percent Efficacy Post-Treatment (Culex spp.; 20% concentration, 12 hours): 0%
No. landings, Mean (Culex spp.; [2]): 5.0
Percent = [(No. landings/No. present)] × 100 (Culex spp.; [2]): 17.1%
Percent = [(No. landings/No. present)] × 100 (Culex spp.; 20% concentration, 12 hours after treatment, listed as 2-Undecanone): 17.1%
No. landings (Culex spp.; [2]): 5 and 6 and 4
Percent Efficacy Post-Treatment (Culex spp.; 20% concentration, 24 hours): 0%
No. landings, Mean (Culex spp.; [3]): 4.0
Percent = [(No. landings/No. present)] × 100 (Culex spp.; [3]): 13.4%
Percent = [(No. landings/No. present)] × 100 (Culex spp.; 20% concentration, 24 hours after treatment, listed as 2-Undecanone): 13.8%
No. landings (Culex spp.; [3]): 4
Percent Efficacy Post-Treatment (Culex spp.; 50% concentration, 0 hours): 100%
Percent Efficacy Post-Treatment (Culex spp.; 50% concentration, 6 hours): 83.5%
No. landings, Mean (Culex spp.; [4]): 1.3
Percent = [(No. landings/No. present)] × 100 (Culex spp.; [4]): 1.1%
Percent = [(No. landings/No. present)] × 100 (Culex spp.; [5]): 2.2%
No. landings (Culex spp.; [5]): 0 (3×) and 1 and 3 and 4
Percent Efficacy Post-Treatment (Culex spp.; 50% concentration, 12 hours): 65.3%
No. landings, Mean (Culex spp.; [6]): 7.2
Percent = [(No. landings/No. present)] × 100 (Culex spp.; [6]): 5.8%
Percent = [(No. landings/No. present)] × 100 (Culex spp.; [7]): 5.8%
No. landings (Culex spp.; [7]): 1 and 2 (2×) and 13 (2×) and 12
Percent Efficacy Post-Treatment (Culex spp.; 50% concentration, 24 hours): 56.5%
No. landings, Mean (Culex spp.; [8]): 7.5
Percent = [(No. landings/No. present)] × 100 (Culex spp.; [8]): 5.7%
Percent = [(No. landings/No. present)] × 100 (Culex spp.; [9]): 5.7%
No. landings (Culex spp.; [9]): 3 and 2 (2×) and 11 (2×) and 16
Percent Efficacy Post-Treatment (Culex spp.; 100% concentration, 0 hours): 100%
Percent Efficacy Post-Treatment (Culex spp.; 100% concentration, 6 hours): 100%
No. landings, Mean (Culex spp.; [10]): 0
Percent = [(No. landings/No. present)] × 100 (Culex spp.; [10]): 0%
No. landings (Culex spp.; [10]): 0
Percent Efficacy Post-Treatment (Culex spp.; 100% concentration, 12 hours): 48.5%
No. landings, Mean (Culex spp.; [11]): 1.7
Percent = [(No. landings/No. present)] × 100 (Culex spp.; [11]): 8.6%
Percent = [(No. landings/No. present)] × 100 (Culex spp.; 100% concentration, 12 hours after treatment, listed as 2-Undecanone): 8.6%
No. landings (Culex spp.; [11]): 3 and 1 (2×)
Percent Efficacy Post-Treatment (Culex spp.; 100% concentration, 24 hours): 0%
No. landings, Mean (Culex spp.; [12]): 3.0
Percent = [(No. landings/No. present)] × 100 (Culex spp.; [12]): 19.1%
No. landings (Culex spp.; [12]): 3
observed repellent / residual activity (words) (Culex spp.; 100% concentration): absent after 24 hours post-treatment
observed repellent / residual activity (words) (Culex spp.; 100% concentration, listed as 2-Undecanone): Comments: Strong avoidance response was still evident at 6 hours. Avoidance was much; also recorded: weaker after 12 hours and no obvious avoidance, no dispersal away from the treated
overall repellent activity, comparison of the two compounds (Culex spp.; 100%, 50% and 20% concentrations, 0 to 24 hours): greatest activity overall
mean biting count, mean separation test versus the 20% formulations (Aedes albopictus; 5% formulation): significantly (p=0.05) lower mean biting count than the other two formulations
repellency (Aedes albopictus; 5% formulation, initial value): 100%
repellency (Aedes albopictus; 5% formulation, value to which repellency diminished): upper 60 percentile
repellency (Aedes albopictus; 20% formulations, post-treatment time intervals): low repellency
performance during the first biting count (Aedes albopictus; Off! 14.25% DEET, 5% 2-undecanone): worked well
